Results taken from patent US8846951B2 (AbbVie Inc., priority 2009, dated 2014).
Entries after “also recorded” stand apart in the source; their conditions may differ.

What was measured:
[1] = system: AMP- or PCP-induced hyperactivity; assay: Psychostimulant (AMP or PCP)-induced hyperlocomotion in mice; format: in vivo, mouse
From the text: (x) Assessment of Effects on Psychostimulant-Induced Hyperlocomotion in Mice
In both humans and experimental animals amphetamine (AMP) profoundly affects motor activity, sensorimotor function, sleep, attention, aggressive and sexual behaviors, learning and memory, operant behaviors, appetite and food intake. In addition, amphetamine induces psychotic reactions in normal individuals and exacerbates symptoms of schizophrenia in patients. In experimental animals several distinct behaviors are considered to be correlates of amphetamine psychosis. For example, amphetamine-induced hyperactivity in rodents is believed to model the psychotic symptoms of schizophrenia. Reversal of these behaviors is used to predict potential antipsychotic activity of drugs in pre-clinical studies.
(§1) In humans, phencyclidine (PCP) is known to produce a syndrome of behavioral effects which have many characteristics in common with schizophrenia. Therefore, antagonism of PCP effects might be evidence for antipsychotic efficacy of a compound.
Male NMRI mice (5-week old, Janvier, France) or C57BL/6J mice (6-week old, Janvier, France) were group housed and allowed ad-libitum access to food and water. A 12 hour light/dark cycle was imposed with lights-on period between 0530 and 1730 hours. All testing occurred between 700 and 1300 hours. All procedures were approved by Abbott Institutional Animal Care and Use Committee (USA) or Animal Welfare Officer (Germany) and were conducted in accordance with the National Institutes of Health Guide for Care and Use of Laboratory Animals guidelines and applicable national laws in the facilities accredited by the Association for the Assessment and Accreditation of Laboratory Animal Care.
On the day of experiment, animals were brought from the animal facility into the experimental room and were allowed to acclimatize for at least 30 minutes. Animals were then placed in the test cages for a habituation period of 60 minutes. The animals were then injected ip with the test compound and returned to the test cage. 30 Minutes later the mice were injected with d-amphetamine (2.0 mg/kg, AMP, Sigma, #A5880, sc) or phencyclidine (2.0 mg/kg, PCP, Sigma, #P3029, sc) Sigma, and returned to the test cages for 90 minutes. Each treatment group consisted of 8-10 animals. The data was acquired by Cage rack Photobeam system (SDI, San Diego Instruments, CA). The analyzed data were: fine movements, ambulations and total movements (fine+ambulations). Data was subjected to one- or two-way distribution-free ANOVA followed by Dunnett's and Tukey's post hoc tests.

5HT2B receptors = molecular target: T1, 5HT2B receptors (Homo sapiens, UniProt P41595); assay: Human 5-HT2B functional high throughput screening assay in CHO-K1 cells (calcium flux); format: cell-based
T1 construct: expressed in transfected cells; host or cells: CHO-K1 cells
T1 sequence (P41595 whole entry): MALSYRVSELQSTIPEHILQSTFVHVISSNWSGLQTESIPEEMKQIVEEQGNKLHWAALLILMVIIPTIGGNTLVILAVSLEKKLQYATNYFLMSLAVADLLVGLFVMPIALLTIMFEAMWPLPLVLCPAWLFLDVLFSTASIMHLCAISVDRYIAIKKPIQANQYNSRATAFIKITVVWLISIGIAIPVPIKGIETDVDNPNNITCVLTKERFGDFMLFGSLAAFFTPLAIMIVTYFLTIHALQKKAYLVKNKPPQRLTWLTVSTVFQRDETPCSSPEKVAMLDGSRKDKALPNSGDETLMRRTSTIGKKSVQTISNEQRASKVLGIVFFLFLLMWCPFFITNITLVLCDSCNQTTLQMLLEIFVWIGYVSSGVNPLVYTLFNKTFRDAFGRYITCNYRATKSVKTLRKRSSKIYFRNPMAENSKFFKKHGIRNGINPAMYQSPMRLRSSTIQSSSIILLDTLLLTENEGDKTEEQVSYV
Outline: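 Agonism was measured as FLIPR fluorescence increase (480/530 nm, 25° C) with Ca4 dye and 2.5 mM probenecid, in serum-starved CHO-K1 lines overexpressing human 5-HT2C or 5-HT2B. Six-point 1:10 dilutions from 10 μM (0.2% DMSO final) were fitted by 4-parameter logistics. Responses were normalised to serotonin to give EC50 and % Emax.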

[2] = system: PCP-induced hyperlocomotion; assay: Psychostimulant (PCP)-induced hyperlocomotion in rat; format: in vivo; settings: male CD rats; i.p. 1, 3, 10 mg/kg 30 min before PCP 2 mg/kg sc; significant at 1 mg/kg and 10 mg/kg
Experimental: (vii) Assessment of Effects on Psychostimulant-Induced Hyperlocomotion in Rat
as §1
Male CD rats with a body weight of 316-394 g from Charles River (Portage, Mich.) were used in this study. The rats were habituated to the test room for 60 minutes. The rats were then placed into the locomotor activity chambers (AccuScan Instruments) for 30 minutes and then were dosed i.p. with Example 115 at 0, 1, 3 and 10 mg/kg. The rats were dosed sc 30 minutes later with PCP at 0 or 2 mg/kg. The activity was measured for 150 minutes in total and 90 minutes post PCP.

spontaneous activity ([1]; after ip test compound, before psychostimulant): without affecting spontaneous activity | EC50 (5HT2B receptors; 5-HT2B agonist activity, CHO-K1 cells, calcium flux, read-out: EC50): > 10 µM | Emax (5HT2B receptors; 5-HT2B, maximum functional response as percentage relative to the effect of serotonin): inactive
Structure (SMILES): CN1C[C@@H]2CNC(=O)c3cc(-c4ccc(F)cc4)ccc3[C@H]2C1 [Example 115, (3aS,10bS)-8-(4-Fluorophenyl)-2-methyl-1,2,3,3a,4,5-hexahydrobenzo[e]pyrrolo[3,4-c]azepin-6(10bH)-one]
AMP-induced hyperactivity ([1]; test compound ip 30 min before d-amphetamine 2.0 mg/kg sc): attenuated AMP-induced hyperactivity in mice significantly and in a dose dependent manner; also recorded: attenuating the affect of d-amphetamine (AMP) | PCP-induced hyperlocomotion (distance traveled) [2]: significantly attenuate the PCP-induced hyperlocomotion; also recorded: attenuating the affect of phencyclidine (PCP)
